Measurements: publication PMC7760477 (Nutrients, 2020)
“Also recorded” adds a separate entry of the source.

Experiments:
[1] = 2009 pharmacokinetic study (Prinz-Langenohl et al.): plasma (6S)-5-Methyl-THF by LC-MS-MS after a single oral dose in women; settings: AUC0-8h of plasma (6S)-5-Methyl-THF; individual ratios; mean (SD)
Method: Plasma concentrations of (6S)-5-Methyl-THF were selectively measured in both studies.
(§1) We used individual data from the two studies to calculate the AUC0–8 h of plasma (6S)-5-Methyl-THF. […] We extrapolated plasma concentrations of (6S)-5-Methyl-THF for the missing time points in the corresponding studies by calculating the mean of the concentrations at the two neighboring time points (=before and after the missing concentrations). […] The incremental AUCs of plasma (6S)-5-Methyl-THF were calculated and were expressed as nmol/L*h.
The data analyses were conducted using individual data from the 24 subjects in the present pharmacokinetic study and 21 women (3 women were excluded due to implausible results) from the study of Prinz-Langenohl et al. [13].

[2] = design: method as in Pietrzik et al., 2000 unpublished data; settings: single equimolar dose; 23 women; mean (SD); ref Pietrzik et al., 2000 unpublished data; cited from earlier work
[3] = Indirect comparison of AUCs of plasma (6S)-5-Methyl-THF between the 2019 and 2009 studies; settings: female, human, in vivo, 451 µg
Method: as §1

[4] = Pharmacokinetic study (present, 2019): plasma (6S)-5-Methyl-THF by UPLC-MS/MS after a single oral dose
Method: Both folate compounds were provided in odorless gelatin capsules of identical appearance (Apotheke Roter Ochsen AG, Schaffhausen, Switzerland). The label carried a random ID number and the kinetic day 1 and day 2.
The randomization was carried out on kinetic day 1 by means of consecutive numbering and was stratified by sex. On the kinetic days, a permanent venous catheter was inserted in the morning. Blood (8 mL) was collected under fasting conditions (at t0) into EDTA-K^+-containing tubes. […] The study product (1 capsule) was administered with 150 mL water by the study personnel to ensure compliance. A folate-free protein drink (Scandishake® Mix, Nutricia GmbH, Erlangen, Germany) was dissolved in water and served at 1 h, 3 h and 6 h after the product intake. The drink provided 430 kcal per serving. On each kinetic day, 9 blood samples were collected between t0 and t8 h (8 mL each). […]
Plasma total folate levels were measured on the kinetic days by using Cobas autoanalyser (Elecsys®, Roche, Mannheim, Germany) at the Department of Clinical Chemistry, Saarland University Hospital, Germany. […] All plasma samples collected from the same subject (18 samples on both study visits) were prepared and measured in the same run. […]
Incremental areas under the observed concentration-time curve above baseline were calculated applying the trapezoidal rule and were expressed as nmol/L*h.

[5] = rated as unrelated to the study product
Method: On the kinetic days, a permanent venous catheter was inserted in the morning. Blood (8 mL) was collected under fasting conditions (at t0) into EDTA-K^+-containing tubes. […] The study product (1 capsule) was administered with 150 mL water by the study personnel to ensure compliance. […] On each kinetic day, 9 blood samples were collected between t0 and t8 h (8 mL each). The diary records including documentation of adverse events were returned during the last blood collection session after 8 h of the intake.

[6] = Pharmacokinetic study (present, 2019): plasma unmetabolized folic acid by UPLC-MS/MS after a single oral dose; settings: over 8 h; limit of detection 0.20 nmol/L
Method: (§2) The label carried a random ID number and the kinetic day 1 and day 2.
(§3) The randomization was carried out on kinetic day 1 by means of consecutive numbering and was stratified by sex. On the kinetic days, a permanent venous catheter was inserted in the morning. Blood (8 mL) was collected under fasting conditions (at t0) into EDTA-K^+-containing tubes. […] The study product (1 capsule) was administered with 150 mL water by the study personnel to ensure compliance. A folate-free protein drink (Scandishake® Mix, Nutricia GmbH, Erlangen, Germany) was dissolved in water and served at 1 h, 3 h and 6 h after the product intake. The drink provided 430 kcal per serving. On each kinetic day, 9 blood samples were collected between t0 and t8 h (8 mL each). The diary records including documentation of adverse events were returned during the last blood collection session after 8 h of the intake. After a washout period of 2 weeks (only two participants returned at 11 and 17 days) and during the second study visit (kinetic day 2), the other study compound was administered following exactly the same procedure.
(§4) Plasma total folate levels were measured on the kinetic days by using Cobas autoanalyser (Elecsys®, Roche, Mannheim, Germany) at the Department of Clinical Chemistry, Saarland University Hospital, Germany. The CV% of the total folate assay was <6%. All plasma samples collected from the same subject (18 samples on both study visits) were prepared and measured in the same run. All blood samples were primary aliquots frozen at −70 °C for no longer than 3 months.

clinical = settings: both, human, in vivo
Method: as §2, §3, §4

For CN1c2c(nc(N)[nH]c2=O)NC[C@@H]1CNc1ccc(C(=O)N[C@@H](CCC(=O)O)C(=O)O)cc1 [(6S)-5-Methyl-THF-Ca, (6S)-5-Methyltetrahydrofolic acid], the “AUC Ratio: AUCs (6S)-5-Methyl-THF-Ca/ folic acid 2009” value [1] is given as 2.29 (0.76), the “Incremental AUC0–8 h of plasma total folate” value [2] is given as 85.0 (21.9) nmol/L*h and the AUC(0-t) [3] is given as 0.136 µM·h.

In the case of CN1c2c(nc(N)[nH]c2=O)NC[C@@H]1CNc1ccc(C(=O)N[C@@H](CCC(=O)O)C(=O)O)cc1 [(6S)-5-Methyl-THF-Na, (6S)-5-Methyltetrahydrofolic acid], the “AUC Ratio: AUCs of (6S)-5-Methyl-THF-Na/ AUC folic acid 2019” value ([4]; AUC0-8h of plasma (6S)-5-Methyl-THF, individual ratios, mean (SD)) is reported as 2.52 (1.02), the “Maximum concentrations of plasma (6S)-5-Methyl-THF reached earlier compared to folic acid” value ([4]; difference of Tmax versus folic acid) is reported as 60 min and the “Headaches reported on kinetic day 1 after intake” value [5] is reported as “Three subjects reported headaches”. For the same molecule, the “Plasma unmetabolized folic acid levels after intake” value [6] was “below the limit of detection; also recorded: remained undetectable”.

Work on Nc1nc2ncc(CNc3ccc(C(=O)N[C@@H](CCC(=O)O)C(=O)O)cc3)nc2c(=O)[nH]1 [folic acid, pteroylmonoglutamic acid] yielded a concentration at 0.5 h (clinical) of 2.5 nM, a concentration at 1 h (clinical) of 4.7 nM and a Tmax (clinical; po) of 30 to 60 min. For the same molecule, the “Incremental AUC0–8 h of plasma total folate” value [2] was 50.3 (20.1) nmol/L*h.
